# In patent US20110039762A1, “TARGETED ANTIMICROBIAL MOIETIES” (C3 JIAN, INC., priority 2009, published 2011):
# “Also recorded” adds a separate entry of the source. Bridge positions count the residues as written; N and C are the ends. Square brackets hold non-standard residues; d marks the D form. Ends that are not written are not given here. Peptide text beside a SMILES is read from it. I, II: the chains in the order shown. Aoc = NCCCCCCCC(=O)O
# How the values were obtained:
# [1] = test system: S. mutans; assay: Post-antibiotic effect assay (growth retardation after 10 min exposure); format: cell-based, Streptococcus mutans; settings: S. mutans monoculture, peptide 10 min, then fresh medium
# Method: The activity and selectivity of MH-STAMPs after a 10 min incubation was determined by growth retardation experiments against targeted and untargeted bacteria in monocultures, as described previously (Id.). Cells from overnight cultures were diluted to ˜5×10^6 cfu/mL in MH (or TH with 1% sucrose for S. mutans), normalized by OD600 0.05-0.1 and seeded to 96-well plates. Cultures were then grown under the appropriate conditions for 2 h (3 h for S. mutans) prior to the addition of peptides for 10 min. Plates were then centrifuged at 3000×g for 5 min, the supernatants discarded, fresh medium returned (MH or TH without sucrose for S. mutans), and incubation resumed. Bacterial growth after treatment was then monitored over time by OD600.
# [2] = test system: Mixed planktonic populations of P. aeruginosa, E. coli, S. epidermidis, and S. mutans; assay: Microbial population shift assay; format: cell-based; settings: 10 μM peptide, 24 h
# Method: Peptide (10 μM) or mock-treatment (1× PBS) was then added and samples were incubated at 37° C. for 24 h under anaerobic conditions (80% N2, 15% CO2, 5% H2). […] Plates were then incubated 37° C. under aerobic conditions (TH plates were incubated anaerobically) and colonies counted after 24 h to determine survivors. […] Gram stains and direct microscopic observation (from select isolated colonies) were undertaken to confirm species identity (data not shown). The detection limit of the assay was 200 cfu/mL.
# [3] = test system: C. difficile; assay: MIC (broth microdilution); format: cell-based, Clostridium difficile
# Method: (§1) Typically, the in vitro antimicrobial activity of antimicrobial agents is tested using standard NCCLS bacterial inhibition assays, or MIC tests (see, National Committee on Clinical Laboratory Standards “Performance Standards for Antimicrobial Susceptibility Testing,” NCCLS Document M100-S5 Vol. 14, No. 16, December 1994; “Methods for dilution antimicrobial susceptibility test for bacteria that grow aerobically-Third Edition,” Approved Standard M7-A3, National Committee for Clinical Standards, Villanova, Pa.).
# (§2) Briefly, ˜1×10^5 cfu/mL bacteria were diluted in TH (S. mutans), or Mueller-Hinton (MH) broth (all other organisms) and distributed to 96-well plates. Serially-diluted (2-fold) peptides were then added and the plates incubated at 37° C. for 18-24 h. […] All experiments were conducted 10 times.
# [4] = test system: S. pneumoniae; assay: Kill or inhibit growth/proliferation; morphology, biofilm and growth disruption (Tables 5, 6); format: cell-based, Streptococcus pneumoniae; parameters: key: A: Peptide aggregates; B: Less hyphal formation; Clumps; Diffuse clumps and small polyps; F: Diffuse growth; H: Thin; I: Growth inhibition; Microcolony formation; Rippled; Small polyps; Thick; W: Halo formation on top, microlonies on bottom
# [5] = test system: microorganisms (e.g., bacteria, yeasts, fungi); assay: Targeting peptide binding to target microorganisms (Table 3); settings: microorganism(s) the targeting peptide binds, preferably 1x PBS
# [6] = test system: microorganisms; assay: Peptides having multiple activities (targeting/binding, antimicrobial, growth or phenotype altering)
# Text: In certain embodiments, peptides described herein can have multiple activities. Thus for example, a peptide can have both binding/targeting activity and antimicrobial activity. Such peptides can be used, e.g., in a chimeric construct, for any or all of these properties. Thus, for example, a peptide designated “B” in Table 8 can be used as a targeting peptide. If it is also designated G or M it can also be used for antimicrobial activity.
# [7] = test system: S. mutans; format: cell-based, Streptococcus mutans; settings: S. mutans
# [8] = test system: MRSA; assay: MIC (broth microdilution); format: cell-based, Methicillin-resistant Staphylococcus aureus
# In short: (§3)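 Broth microdilution per NCCLS: ~1×10^5 cfu/mL organisms in Mueller-Hinton broth with 2-fold serial dilutions of peptide. Incubated 37 °C for 18–24 h; MIC read as lowest inhibitory concentration, 10 replicate experiments.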
# [9] = test system: S. epidermidis; format: cell-based, Staphylococcus epidermidis; settings: S. epidermidis
# Method: as §1, §2
# [10] = test system: E. coli; format: cell-based, Escherichia coli; settings: E. coli
# Method: as §1, §2
# [11] = test system: S. pneumoniae; assay: MIC (broth microdilution); format: cell-based, Streptococcus pneumoniae
# In short: as §3
# [12] = test system: MRSA; assay: Kill or inhibit growth/proliferation; morphology, biofilm and growth disruption (Tables 5, 6); format: cell-based, Methicillin-resistant Staphylococcus aureus; parameters: key: A: Peptide aggregates; B: Less hyphal formation; Clumps; Diffuse clumps and small polyps; F: Diffuse growth; H: Thin; I: Growth inhibition; Microcolony formation; Rippled; Small polyps; Thick; W: Halo formation on top, microlonies on bottom
# [13] = test system: S. epidermidis; assay: as above; format: cell-based, Staphylococcus epidermidis; parameters: key: A: Peptide aggregates; B: Less hyphal formation; Clumps; Diffuse clumps and small polyps; F: Diffuse growth; H: Thin; I: Growth inhibition; Microcolony formation; Rippled; Small polyps; Thick; W: Halo formation on top, microlonies on bottom
# [14] = test system: S. mutans; assay: as above; format: cell-based, Streptococcus mutans; parameters: key: A: Peptide aggregates; B: Less hyphal formation; Clumps; Diffuse clumps and small polyps; F: Diffuse growth; H: Thin; I: Growth inhibition; Microcolony formation; Rippled; Small polyps; Thick; W: Halo formation on top, microlonies on bottom
# [15] = test system: C. albicans; assay: as above; format: cell-based, Candida albicans; parameters: key: A: Peptide aggregates; B: Less hyphal formation; Clumps; Diffuse clumps and small polyps; F: Diffuse growth; H: Thin; I: Growth inhibition; Microcolony formation; Rippled; Small polyps; Thick; W: Halo formation on top, microlonies on bottom
# [16] = test system: A. baumannii; assay: MIC (broth microdilution); format: cell-based, Acinetobacter baumannii
# Method: as §1, §2
# [17] = test system: T. rubrum; assay: MIC (broth microdilution); format: cell-based, Trichophyton rubrum
# Method: as §1, §2
# [18] = test system: C. albicans; assay: MIC (broth microdilution); format: cell-based, Candida albicans
# Method: as §1, §2
# [19] = test system: M. luteus; assay: Kill or inhibit growth/proliferation; morphology, biofilm and growth disruption (Tables 5, 6); format: cell-based, Micrococcus luteus; parameters: key: A: Peptide aggregates; B: Less hyphal formation; Clumps; Diffuse clumps and small polyps; F: Diffuse growth; H: Thin; I: Growth inhibition; Microcolony formation; Rippled; Small polyps; Thick; W: Halo formation on top, microlonies on bottom
# [20] = test system: B. subtilis; assay: MIC (broth microdilution); format: cell-based, Bacillus subtilis
# In short: as §3
# [21] = test system: B. subtilis; assay: Kill or inhibit growth/proliferation; morphology, biofilm and growth disruption (Tables 5, 6); format: cell-based, Bacillus subtilis; parameters: key: A: Peptide aggregates; B: Less hyphal formation; Clumps; Diffuse clumps and small polyps; F: Diffuse growth; H: Thin; I: Growth inhibition; Microcolony formation; Rippled; Small polyps; Thick; W: Halo formation on top, microlonies on bottom
# [22] = test system: BHK-21 (ATCC CRL-10) fibroblasts; assay: Cytotoxicity, Promega CellTiterGlo assay; format: cell-based, hamster; settings: BHK, at either 5 min or 24 h, with or without light
# Method: Streptococcus oralis ATCC 10557, Streptococcus gordonii (Challis), Streptococcus sanguinis (NY101), Streptococcus mitis ATCC 903, Streptococcus salivarius ATCC 13419 and S. mutans wild-type UA140 and JM11 (spectinomycin-resistant) strains were grown in Todd-Hewitt (TH) broth 37° C. in an anaerobic atmosphere of 80% N2, 10% CO2, and 10% H2. BHK-21 (ATCC CRL-10) fibroblasts were propagated in DMEM with 10% FBS, 1 mM sodium pyruvate, 100 units/mL penicillin G, and 100 μg/mL streptomycin at 37° C. with 5% CO2. Cells were detached with 0.25% trypsin and subcultured as recommended by the supplier.
# The effect of RB and C16-RB on […] fibroblasts was ascertained by utilizing the Promega CellTiterGlo assay, as described by the manufacturer. Briefly, fibroblasts were grown to confluence, detached, and seeded to ˜5,000 cells per well in a 96-well opaque walled, clear bottom 96-well plate (Nunc International). For long-term dark toxicity, cells were allowed to attach to for 18 h before the culture medium was replaced with medium plus serially-diluted RB or C16-RB (200 μM to 390 nM) or medium alone. After 18-24 h, equal volume Cell Titer Glo reagent was added to each well and mixed. Luciferace activity was then quantified to measure cell viability (Varian Fluorometer in Biolumenescence mode). To measure cytotoxicity after RB or C16-RB light exposure, cells were seeded at ˜10,000 cells per well and allowed to attach for 4 h. Cell growth medium was then replaced with RB or C16-RB containing medium, prior to exposure (a single well at a time) with blue light (400 mW/cm^2) suspended ˜3 cm from the well bottom. After exposure, cultures were disrupted with Cell Titer Glo and luciferase activity quantitated as above.
# [23] = test system: S. mutans; assay: Anti-S. mutans STAMP activity in vitro, also in formulations; format: cell-based, Streptococcus mutans
# [24] = binding in aqueous buffers depending on peptide solubility
compound,measurement,setting,value
CC[C@H](C)[C@H](NC(=O)[C@H](Cc1ccccc1)NC(=O)CCCCCCCNC(=O)[C@H](CCCCNC(=O)CNC(=O)CNC(=O)CNC(=O)[C@H](C)NC(=O)[C@H](CCC(=O)O)NC(=O)[C@H](CC(N)=O)NC(=O)[C@H](C)NC(=O)[C@H](C)NC(=O)[C@@H](N)CC(=O)O)NC(=O)CNC(=O)CNC(=O)CNC(=O)[C@H](CCCNC(=N)N)NC(=O)[C@H](CC(N)=O)NC(=O)[C@H](CC(C)C)NC(=O)[C@H](Cc1ccccc1)NC(=O)[C@H](CCCNC(=N)N)NC(=O)[C@H](Cc1ccccc1)NC(=O)[C@H](Cc1ccccc1)NC(=O)[C@@H](NC(C)=O)[C@@H](C)O)C(=O)N[C@@H](CCCNC(=N)N)C(=O)N[C@@H](CCCCN)C(=O)N[C@@H](Cc1ccccc1)C(=O)N[C@@H](CC(C)C)C(=O)N[C@@H](CCCCN)C(=O)N[C@@H](CCCCN)C(=O)N[C@@H](Cc1c[nH]c2ccccc12)C(=O)N[C@@H](CC(C)C)C(=O)N[C@@H](CC(C)C)C(N)=O [M8(BL)-20] (I: Ac-TFFRFLNRGGGK[Aoc]FIRKFLKKWLL-NH2 / II: H-DAANEAGGG; amide I:12-II:C),bacterial growth (OD600) after treatment,[1],effectively retarded
same,recoverable (surviving) cfu/mL,[2]; E. coli in mixed culture,not affected or affected to a lesser extent
same,recoverable (surviving) cfu/mL,[2]; P. aeruginosa in mixed culture,not affected or affected to a lesser extent
same,recoverable (surviving) cfu/mL,[2]; S. epidermidis in mixed culture,not affected or affected to a lesser extent
same,recoverable (surviving) cfu/mL,[2]; S. mutans in mixed culture,greatly reduced compared to input cfu/mL
FELVDWLETNLGKILKSKSA-NH2 [PF-522],MIC,[3],"C. difficile, 25 μM"
same,"Organism, effect",[4],S. pneumoniae (H)
same,Target(s),[5]; peptide binding conducted in aqueous buffers varied by peptide solubility,S. epidermidis; also recorded: E. coli; also recorded: P. aeruginosa; also recorded: S. pneumoniae; also recorded: E. faecalis
same,Activities,[6],G B M
FESKILNASKELDKEKKVNTALSFNSHQDFAKAYQNGKI [PF-606],MIC,[7],"S. mutans, 50 μM"
same,MIC,[8],"MRSA , 50 μM"
same,MIC,[9],"S. epidermidis, 50 μM"
same,MIC,[10],"E. coli, 50 μM"
same,MIC,[11],"S. pneumoniae, 50 μM"
same,"Organism, effect",[12],MRSA (I)
same,"Organism, effect",[13],S. epidermidis (I)
same,"Organism, effect",[14],S. mutans (I)
same,"Organism, effect",[4],S. pneumoniae (H)
same,"Organism, effect",[15],C. albicans (B)
same,Activities,[6],G M
KNKKQTDILEKVKEILDKKKKTKSVGQKLY [PF-538],MIC,[16],"A. baumannii, 25 μM"
same,MIC,[3],"C. difficile, 25 μM"
same,"Organism, effect",[4],S. pneumoniae (H)
same,Activities,[6],G M
LSLATFAKIFMTRSNWSLKRFNRL [PF-278],MIC,[17],"T. rubrum, 50 μM"
same,MIC,[9],"S. epidermidis, 50 μM"
same,MIC,[18],"C. albicans, 50 μM"
same,"Organism, effect",[19],M. luteus (R)
same,"Organism, effect",[13],S. epidermidis (I)
same,"Organism, effect",[15],C. albicans (B)
same,Target(s),[5]; [24],M. luteus; also recorded: A. baumannii
same,Activities,[6],G B M
MKRRRCNWCGKLFYLEEKSKEAYCCKECRKKAKKVKK [PF-307],MIC,[17],"T. rubrum, 50 μM"
same,MIC,[20],"B. subtilis, 50 μM"
same,MIC,[18],"C. albicans, 50 μM"
same,"Organism, effect",[21],B. subtilis (H)
same,"Organism, effect",[13],S. epidermidis (T)
same,"Organism, effect",[15],C. albicans (B)
same,Target(s),[5]; [24],S. epidermidis; also recorded: B. subtilis; also recorded: B. fragilis; also recorded: C. difficile
same,Activities,[6],G B M
Melittin B,IC50,[22],< 1.56 µM
TFFRLFNRSFTQALGKGGGKNLRIIRKGIHIIKKY* (not fully specified (C-terminus); printed as TFFRLFNRSFTQALGKGGGKNLRIIRKGIHIIKKY*) [Peptide C16G2],PBS strength at activity optimum,[23]; PBS formulations 0.5× to about 2.5× PBS,about 1 × PBS
same,anti-S. mutans activity,[23]; phosphate buffered saline (PBS) formulation,active
same,anti-S. mutans activity,[23]; water-based salt-free buffers and nanoemulsions,substantially inactive
